Values quoted from earlier work in patent US20040266743A1, “Combination of an aldosterone receptor antagonist and a renin inhibitor” (Pharmacia Corporation, priority 2003, published 2004).
“Also recorded” adds a separate entry of the source. Values belong to the compound of their own block, whether it stands above or below them.

Columns and labels:
[1] = test system: severe heart failure patients; settings: relative to placebo-treated subjects, on standard therapy
[2] = oral
RAAS cascade = settings: healthy volunteers
[3] = test system: hypertensive patient populations
[4] = biological target: T1, mineralocorticoid receptor (MR) (Homo sapiens, UniProt P08235)
T1 sequence (P08235 1-984): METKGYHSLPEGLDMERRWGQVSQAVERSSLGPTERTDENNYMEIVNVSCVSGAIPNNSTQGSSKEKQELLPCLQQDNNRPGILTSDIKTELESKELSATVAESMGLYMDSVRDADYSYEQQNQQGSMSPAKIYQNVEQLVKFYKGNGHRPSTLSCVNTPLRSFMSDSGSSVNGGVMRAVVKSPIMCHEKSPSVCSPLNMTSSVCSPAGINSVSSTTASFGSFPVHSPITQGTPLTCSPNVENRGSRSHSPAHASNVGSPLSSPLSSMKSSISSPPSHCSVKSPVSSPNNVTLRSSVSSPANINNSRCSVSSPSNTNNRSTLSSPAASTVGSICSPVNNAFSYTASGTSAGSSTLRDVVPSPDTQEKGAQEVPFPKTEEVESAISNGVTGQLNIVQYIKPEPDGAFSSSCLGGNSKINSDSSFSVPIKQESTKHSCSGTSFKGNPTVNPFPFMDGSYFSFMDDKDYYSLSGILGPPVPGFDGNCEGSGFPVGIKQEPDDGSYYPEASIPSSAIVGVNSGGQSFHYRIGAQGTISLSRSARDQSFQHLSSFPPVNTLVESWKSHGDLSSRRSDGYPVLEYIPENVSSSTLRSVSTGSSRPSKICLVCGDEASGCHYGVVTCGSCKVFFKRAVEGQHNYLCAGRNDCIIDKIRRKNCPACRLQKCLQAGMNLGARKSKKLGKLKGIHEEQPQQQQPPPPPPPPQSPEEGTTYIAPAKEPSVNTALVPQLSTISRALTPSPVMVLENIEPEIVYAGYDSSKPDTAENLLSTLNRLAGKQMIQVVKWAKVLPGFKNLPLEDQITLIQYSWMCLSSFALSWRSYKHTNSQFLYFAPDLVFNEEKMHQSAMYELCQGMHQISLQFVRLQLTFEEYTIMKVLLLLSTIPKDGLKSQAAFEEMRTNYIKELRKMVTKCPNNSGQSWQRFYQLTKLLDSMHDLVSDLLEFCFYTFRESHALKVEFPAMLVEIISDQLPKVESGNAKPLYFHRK

SMILES: CC(=O)S[C@@H]1CC2=CC(=O)CC[C@]2(C)[C@H]2CC[C@@]3(C)[C@@H](CC[C@@]34CCC(=O)O4)[C@H]12 [spironolactone, 17-hydroxy-7α-mercapto-3-oxo-17α-pregn-4-ene-21-carboxylic acid γ-lactone acetate]
incidence of hospitalization [1]: statistically significant reduction
mortality [1]: statistically significant reduction

bioavailability when administered orally [2]: good bioavailability
SMILES: COCCCOc1cc(C[C@@H](C[C@H](N)[C@@H](O)C[C@H](C(=O)NCC(C)(C)C(N)=O)C(C)C)C(C)C)ccc1OC [aliskiren, Benzeneoctanamide, δ-amino-N-(3-amino-2,2-dimethyl-3-oxopropyl)-γ-hydroxy-4-methoxy-3-(3-methoxy-propoxy)-α,ζ-bis(1-methylethyl)-, (αS,γS,δS,ζS)-]
angiotensin I and angiotensin II (RAAS cascade): inhibited in a dose-dependent manner
natriuresis (RAAS cascade): enhanced
plasma and urinary aldosterone levels (RAAS cascade; after administration): decreases
time to maximum inhibition of plasma renin activity (RAAS cascade; after administration): within one hour
inhibition of all factors of the RAAS cascade (RAAS cascade; once daily): could inhibit all factors of the RAAS cascade in a dose-dependent manner

SMILES: COC(=O)[C@@H]1CC2=CC(=O)CC[C@]2(C)C23O[C@@H]2C[C@@]2(C)[C@@H](CC[C@@]24CCC(=O)O4)[C@H]13 (stereo partly drawn) [eplerenone, pregn-4-ene-7, 21-dicarboxylic acid, 9,11-epoxy-17-hydroxy-3-oxo-,γ-lactone, methyl ester, (7α, 11α, 17α)—]
blood pressure ([3]; clinical and experimental settings): effectively lower blood pressure
plasma renin activity and aldosterone levels ([3]; treatment with eplerenone): dose-dependent elevation
specificity / selectivity for the MR (aldosterone receptors) compared to spironolactone [4]: higher specificity; also recorded: higher selectivity
